Here are results for 24 compounds from patent publication US11014917B2, “5-fluoro-c-(aryl or heterocyclyl)-glycoside derivatives useful as dual SGLT1 / SGLT2 modulators” (Janssen Pharmaceutica NV, priority 2017, dated 2021).

One experiment has as its target T1, human SGLT1 (Homo sapiens, UniProt P13866).
T1 construct: expressed in transfected cells
T1 sequence (P13866 1-664): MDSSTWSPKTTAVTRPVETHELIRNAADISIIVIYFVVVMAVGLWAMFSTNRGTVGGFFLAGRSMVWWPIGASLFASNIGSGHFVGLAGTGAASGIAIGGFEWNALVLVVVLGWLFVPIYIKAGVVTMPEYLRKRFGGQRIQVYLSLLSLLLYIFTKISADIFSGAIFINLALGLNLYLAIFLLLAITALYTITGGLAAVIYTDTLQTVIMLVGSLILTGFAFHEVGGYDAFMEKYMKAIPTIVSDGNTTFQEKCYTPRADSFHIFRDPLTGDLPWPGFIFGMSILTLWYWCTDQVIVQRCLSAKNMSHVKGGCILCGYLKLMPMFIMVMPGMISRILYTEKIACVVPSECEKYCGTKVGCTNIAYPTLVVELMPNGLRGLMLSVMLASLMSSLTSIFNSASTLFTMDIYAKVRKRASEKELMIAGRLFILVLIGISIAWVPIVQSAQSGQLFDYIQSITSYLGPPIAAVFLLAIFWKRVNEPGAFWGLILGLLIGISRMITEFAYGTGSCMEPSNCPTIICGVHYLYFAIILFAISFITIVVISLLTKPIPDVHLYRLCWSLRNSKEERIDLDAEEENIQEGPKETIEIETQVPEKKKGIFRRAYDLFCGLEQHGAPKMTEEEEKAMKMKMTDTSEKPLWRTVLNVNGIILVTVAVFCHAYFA
The experiment in a line: SGLT1 assay: Na-dependent 14C-AMG uptake in CHO-K1 cells stably expressing human SGLT1. The class given is cell-based. The note with it: for IC50: average if tested more than once; for inhibition at 0.3 µM / SGLT1 %-inhibition: @ 0.3 μM. The procedure, abridged:
(§1)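 Stable CHO-K1 lines were pretreated 24 h with 10 mM Na-butyrate, then compound (0.001–10 μM) for 10 min in Na+ buffer (137 mM NaCl, pH 7.4). Uptake of 14C-AMG (500 μM final, 0.07 μCi/well) over 2 h at 37° C measured by scintillation; %-inhibition or IC50.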

In the next experiment the target is T2, human SGLT2 (Homo sapiens, UniProt P31639).
T2 construct: expressed in transfected cells
T2 sequence (P31639 1-672): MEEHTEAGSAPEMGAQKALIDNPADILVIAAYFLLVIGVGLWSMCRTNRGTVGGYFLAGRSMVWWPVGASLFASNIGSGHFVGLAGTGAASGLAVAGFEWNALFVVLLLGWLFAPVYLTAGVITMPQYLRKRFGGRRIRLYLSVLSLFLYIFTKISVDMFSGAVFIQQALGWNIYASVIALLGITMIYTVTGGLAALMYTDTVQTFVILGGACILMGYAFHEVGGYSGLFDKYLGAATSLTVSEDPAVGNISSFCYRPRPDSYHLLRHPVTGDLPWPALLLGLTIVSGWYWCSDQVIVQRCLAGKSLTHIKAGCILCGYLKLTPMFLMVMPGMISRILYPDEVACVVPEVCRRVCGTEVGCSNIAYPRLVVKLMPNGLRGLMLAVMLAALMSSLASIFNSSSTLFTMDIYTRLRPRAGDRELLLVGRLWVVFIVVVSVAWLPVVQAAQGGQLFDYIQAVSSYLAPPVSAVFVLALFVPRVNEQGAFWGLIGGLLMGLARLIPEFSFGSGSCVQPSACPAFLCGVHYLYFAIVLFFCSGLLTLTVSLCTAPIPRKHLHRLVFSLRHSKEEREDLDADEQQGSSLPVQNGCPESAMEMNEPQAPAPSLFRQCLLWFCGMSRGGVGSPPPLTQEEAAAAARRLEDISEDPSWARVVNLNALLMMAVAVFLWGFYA
The experiment in a line: SGLT2 assay: Na-dependent 14C-AMG uptake in CHO-K1 cells stably expressing human SGLT2. Type of experiment: cell-based. The note with it: for IC50: average if tested more than once; for inhibition at 0.3 µM / SGLT2 %-inhibition: @ 0.3 μM. Summed up:
as §1

Each structure is given as a SMILES string.

Take `CCOc1c(Cc2ccc3c(c2)OCCO3)cc([C@@H]2O[C@H](CO)[C@@H](F)[C@H](O)[C@H]2O)c2c1CCO2` [Compound 102, (2S,3R,4R,5S,6R)-2-[5-(2,3-dihydro-1,4-benzodioxin-6-ylmethyl)-4-ethoxy-2,3-dihydrobenzofuran-7-yl]-5-fluoro-6-(hydroxymethyl)tetrahydropyran-3,4-diol]: the inhibition at 0.3 µM at human SGLT1 worked out at 27.6%; against human SGLT2, 40.7%.
Turning to `Cc1cc(O)c([C@@H]2O[C@H](CO)[C@@H](F)[C@H](O)[C@H]2O)cc1Cc1cc2c(s1)CCN(C#N)C2` [Compound 103, 2-(5-((2S,3R,4R,5S,6R)-5-fluoro-3,4-dihydroxy-6-(hydroxymethyl)-tetrahydro-2H-pyran-2-yl)-4-hydroxy-2-methylbenzyl)-6,7-dihydrothieno[3,2-c]pyridine-5(4H)-carbonitrile], the figures for the IC50 on human SGLT1 and against human SGLT2 were 86 nM and 3 nM, respectively.
At human SGLT1, `COc1cc(OC)c([C@@H]2O[C@H](CO)[C@@H](F)[C@H](O)[C@H]2O)cc1Cc1cc2c(s1)CCN(C#N)C2` [Compound 104] displayed an SGLT1 %-inhibition of 32.5% @ 0.3 μM. The compound further displayed an SGLT2 %-inhibition on human SGLT2 of 81.2% @ 0.3 μM.
With `COc1c([C@@H]2O[C@H](CO)[C@@H](F)[C@H](O)[C@H]2O)cc(Cc2ccc3c(c2)NCCC3)c2c1CCO2` [Compound 105, (2S,3R,4R,5S,6R)-5-fluoro-6-(hydroxymethyl)-2-(4-methoxy-7-((1,2,3,4-tetrahydroquinolin-7-yl)methyl)-2,3-dihydrobenzofuran-5-yl)-tetrahydro-2H-pyran-3,4-diol], the IC50 against human SGLT1 was found to be 128 nM; at human SGLT2 it was 4 nM.
In turn, `COc1cc(Cl)c(Cc2cc3c(s2)CCN(C(=O)c2nccs2)C3)cc1[C@@H]1O[C@H](CO)[C@@H](F)[C@H](O)[C@H]1O` [Compound 106] returned an SGLT1 %-inhibition on human SGLT1 of 29.4% @ 0.3 μM. Besides, the SGLT2 %-inhibition at human SGLT2 worked out at 82.1% @ 0.3 μM.
`COc1c([C@@H]2O[C@H](CO)[C@@H](F)[C@H](O)[C@H]2O)cc(Cc2ccc3c(c2)SCCO3)c2c1CCO2` [Compound 107, (2S,3R,4R,5S,6R)-2-(7-((2,3-dihydrobenzo[b][1,4]oxathiin-6-yl)methyl)-4-methoxy-2,3-dihydrobenzofuran-5-yl)-5-fluoro-6-(hydroxymethyl)-tetrahydro-2H-pyran-3,4-diol]: the concentration for half-maximal inhibition (IC50) against human SGLT1 amounted to 163 nM; at human SGLT2 it was 8 nM.
On the same counts, the results for `COc1c([C@@H]2O[C@H](CO)[C@@H](F)[C@H](O)[C@H]2O)cc(Cc2ccc3c(c2)N(C)CCC3)c2c1CCO2` [Compound 108, (2S,3R,4R,5S,6R)-5-fluoro-6-(hydroxymethyl)-2-(4-methoxy-7-((1-methyl-1,2,3,4-tetrahydroquinolin-7-yl)methyl)-2,3-dihydrobenzofuran-5-yl)-tetrahydro-2H-pyran-3,4-diol] are 326 nM and 75 nM.
As to `Cc1ccc([C@@H]2O[C@H](CO)[C@@H](F)[C@H](O)[C@H]2O)cc1Cc1cc2c(s1)CCN(C(=O)c1nccs1)C2` [Compound 109, (2-(5-((2S,3R,4R,5S,6R)-5-fluoro-3,4-dihydroxy-6-(hydroxymethyl)-tetrahydro-2H-pyran-2-yl)-2-methylbenzyl)-6,7-dihydrothieno[3,2-c]pyridin-5(4H)-yl)(thiazol-2-yl)methanone], the inhibition at 0.3 µM on human SGLT1 was 39.5%; against human SGLT2, 72.7%.
Turning to `COc1cc(C)c(Cc2cc3c(s2)CCN(C#N)C3)cc1[C@@H]1O[C@H](CO)[C@@H](F)[C@H](O)[C@H]1O` [Compound 110, 2-(5-((2S,3R,4R,5S,6R)-5-fluoro-3,4-dihydroxy-6-(hydroxymethyl)-tetrahydro-2H-pyran-2-yl)-4-methoxy-2-methylbenzyl)-6,7-dihydrothieno[3,2-c]pyridine-5(4H)-carbonitrile], the figures for the concentration for half-maximal inhibition (IC50) on human SGLT1 and against human SGLT2 were 1420 nM and 5 nM, respectively.
Taken in the same sequence, the figures for `Cc1cnc(N2CCc3sc(Cc4cc([C@@H]5O[C@H](CO)[C@@H](F)[C@H](O)[C@H]5O)c(O)cc4C)cc3C2)s1` [Compound 111] were 101 nM and 19 nM.
With `COc1cc(C)c(Cc2cc3c(s2)CCN(C(=O)c2nccs2)C3)cc1[C@@H]1O[C@H](CO)[C@@H](F)[C@H](O)[C@H]1O` [Compound 112, (2-(5-((2S,3R,4R,5S,6R)-5-fluoro-3,4-dihydroxy-6-(hydroxymethyl)-tetrahydro-2H-pyran-2-yl)-4-methoxy-2-methylbenzyl)-6,7-dihydrothieno[3,2-c]pyridin-5(4H)-yl)(thiazol-2-yl)methanone], the half-inhibitory concentration (IC50) at human SGLT1 turned out to be 376 nM; on human SGLT2, 23 nM.
As to `Cc1cnc(N2CCc3sc(Cc4cc([C@@H]5O[C@H](CO)[C@@H](F)[C@H](O)[C@H]5O)ccc4C)cc3C2)s1` [Compound 113], the SGLT1 %-inhibition on human SGLT1 is listed as 21.0% @ 0.3 μM. Besides, the SGLT2 %-inhibition on human SGLT2 is given as 53.9% @ 0.3 μM.
As to `N#CN1CCc2sc(Cc3cc([C@@H]4O[C@H](CO)[C@@H](F)[C@H](O)[C@H]4O)c(O)cc3Cl)cc2C1` [Compound 114], the IC50 against human SGLT1 is 109 nM; against human SGLT2, 5 nM.
For the compound `CCc1cc(OC)c([C@@H]2O[C@H](CO)[C@@H](F)[C@H](O)[C@H]2O)cc1Cc1cc2c(s1)CCN(C#N)C2` [Compound 115], at human SGLT1, the SGLT1 %-inhibition amounted to 35.6% @ 0.3 μM. This compound gave an SGLT2 %-inhibition on human SGLT2 of 79.3% @ 0.3 μM.
With `Cc1ccc([C@@H]2O[C@H](CO)[C@@H](F)[C@H](O)[C@H]2O)cc1Cc1cc2c(s1)CCCC2=O` [Compound 116], at human SGLT1, the SGLT1 %-inhibition is 11.5% @ 0.3 μM. The SGLT2 %-inhibition at human SGLT2 worked out at 78.0% @ 0.3 μM.
The compound `Cc1cnc(N2CCc3sc(Cc4cc([C@@H]5O[C@H](CO)[C@@H](F)[C@H](O)[C@H]5O)c(O)cc4C)cc3C2)s1` [Compound 117] showed an SGLT1 %-inhibition at human SGLT1 of 44.3% @ 0.3 μM. The same compound came in with an SGLT2 %-inhibition on human SGLT2 of 69.9% @ 0.3 μM.
In the case of `CCc1cc(O)c([C@@H]2O[C@H](CO)[C@@H](F)[C@H](O)[C@H]2O)cc1Cc1cc2c(s1)CCN(C#N)C2` [Compound 118], the 50% inhibitory concentration (IC50) at human SGLT1 stood at 50 nM; on human SGLT2, 2 nM.
On the same counts, the results for `Cc1cc(O)c([C@@H]2O[C@H](CO)[C@@H](F)[C@H](O)[C@H]2O)cc1Cc1cc2c(s1)CCCC2=O` [Compound 119] are 156 nM and 11 nM.
As for `COc1ccc([C@@H]2O[C@H](CO)[C@@H](F)[C@H](O)[C@H]2O)cc1Cc1cc2c(s1)CCN(C#N)C2` [Compound 120], the SGLT1 %-inhibition on human SGLT1 stood at 6.6% @ 0.3 μM. This compound yielded an SGLT2 %-inhibition at human SGLT2 of 54.7% @ 0.3 μM.
Taken in the same sequence, the figures for `N#CN1CCc2sc(Cc3cc([C@@H]4O[C@H](CO)[C@@H](F)[C@H](O)[C@H]4O)ccc3Cl)cc2C1` [Compound 121] were 20.5% @ 0.3 μM and 79.8% @ 0.3 μM.
Take `Cc1cnc(N2CCc3sc(Cc4cc([C@@H]5O[C@H](CO)[C@@H](F)[C@H](O)[C@H]5O)ccc4C)cc3C2)s1` [Compound 122]: the SGLT1 %-inhibition on human SGLT1 turned out to be 31.7% @ 0.3 μM. The SGLT2 %-inhibition on human SGLT2 is 63.6% @ 0.3 μM.
As to `COc1cc(C)c(Cc2cc3c(s2)CCN(c2ncc(C)s2)C3)cc1[C@@H]1O[C@H](CO)[C@@H](F)[C@H](O)[C@H]1O` [Compound 123], the results for the IC50 against human SGLT1 and against human SGLT2 were 1360 nM and 100 nM, respectively.
As for `OC[C@H]1O[C@@H](c2cc3c(c(Cc4ccc5c(c4)SCCO5)c2)OCC3)[C@H](O)[C@@H](O)[C@@H]1F` [Compound 124], the IC50 at human SGLT1 was 698 nM; against human SGLT2, 147 nM.
Turning to `OC[C@H]1O[C@@H](c2cc(Cc3ccc4c(c3)CCCO4)c(Cl)c3c2OCC3)[C@H](O)[C@@H](O)[C@@H]1F` [Compound 125, (2S,3R,4R,5S,6R)-2-(4-chloro-5-(chroman-6-ylmethyl)-2,3-dihydrobenzofuran-7-yl)-5-fluoro-6-(hydroxymethyl)-tetrahydro-2H-pyran-3,4-diol], the results for the IC50 at human SGLT1 and against human SGLT2 were 227 nM and 17 nM, respectively.
